In the NIST ThermoML archive (doi:10.1016/j.jct.2012.06.020):

Conditions: 101.33 kPa, Liquid, Vibrating tube method

C[S+](C)[O-] [dimethyl sulfoxide]
Conditions	mass density [kg/m3]
293.15 K	1100.22
298.15 K	1095.19
303.15 K	1090.16
313.15 K	1080.12
323.15 K	1070.07
333.15 K	1060.03
